{"source": "ChEMBL document CHEMBL4732103", "about": "“Development of Indoleamine 2,3-Dioxygenase 1 Inhibitors for Cancer Therapy and Beyond: A Recent Perspective” (J Med Chem, 2020)", "key": {"[1]": {"target": "T1, Indoleamine 2,3-dioxygenase 1 (Homo sapiens, UniProt P14902)", "T1 sequence (P14902 whole entry)": "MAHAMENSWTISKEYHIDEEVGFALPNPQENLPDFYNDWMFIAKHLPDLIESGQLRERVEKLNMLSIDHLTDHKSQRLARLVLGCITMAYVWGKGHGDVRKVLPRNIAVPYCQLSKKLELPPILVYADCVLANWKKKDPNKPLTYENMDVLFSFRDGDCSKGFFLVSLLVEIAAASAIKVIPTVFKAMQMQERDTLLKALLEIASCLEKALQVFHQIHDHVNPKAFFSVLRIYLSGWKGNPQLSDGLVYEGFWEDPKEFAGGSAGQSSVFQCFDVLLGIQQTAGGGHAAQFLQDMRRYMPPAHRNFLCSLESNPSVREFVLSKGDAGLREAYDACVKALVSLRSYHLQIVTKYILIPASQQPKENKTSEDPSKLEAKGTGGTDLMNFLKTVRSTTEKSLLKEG", "test": "Inhibition of human His6-tagged IDO1 expressed in Escherichia coli BL21 incubated for 90 mins using L-tryptophan as substrate by fluorescence assay"}, "[2]": {"target": "T1, Indoleamine 2,3-dioxygenase 1", "test": "Inhibition of human IDO1"}, "[3]": {"target": "T1, Indoleamine 2,3-dioxygenase 1", "test": "Inhibition of IDO1 in IFN-gamma stimulated human HeLa cells"}, "[4]": {"test": "Cytotoxicity against human HeLa cells incubated for 48 hrs by MTT assay", "assay_type": "cell-based"}, "[5]": {"target": "Protein cereblon/Indoleamine 2,3-dioxygenase 1 (Homo sapiens, UniProt P14902+Q96SW2)", "sequence (P14902 whole entry)": "as above", "sequence (Q96SW2 whole entry)": "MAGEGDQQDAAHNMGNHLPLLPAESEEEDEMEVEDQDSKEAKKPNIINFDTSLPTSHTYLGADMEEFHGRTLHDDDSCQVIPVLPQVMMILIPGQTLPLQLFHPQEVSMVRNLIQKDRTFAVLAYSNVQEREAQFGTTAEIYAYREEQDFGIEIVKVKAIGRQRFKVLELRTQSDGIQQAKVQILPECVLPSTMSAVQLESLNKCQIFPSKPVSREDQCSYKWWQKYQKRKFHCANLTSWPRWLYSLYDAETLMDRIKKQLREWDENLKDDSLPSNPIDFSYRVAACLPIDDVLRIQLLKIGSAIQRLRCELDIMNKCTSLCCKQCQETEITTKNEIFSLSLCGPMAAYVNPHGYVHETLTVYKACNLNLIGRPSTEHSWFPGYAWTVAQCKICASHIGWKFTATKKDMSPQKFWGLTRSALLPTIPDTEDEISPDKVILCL", "test": "Induction of CRBN-mediated IDO1 degradation in IFNgamma-stimulated human HeLa cells incubated for 24 hrs by Western blot analysis"}, "[6]": {"target": "Indoleamine 2,3-dioxygenase 1 (Mus musculus, UniProt P28776)", "sequence (P28776 whole entry)": "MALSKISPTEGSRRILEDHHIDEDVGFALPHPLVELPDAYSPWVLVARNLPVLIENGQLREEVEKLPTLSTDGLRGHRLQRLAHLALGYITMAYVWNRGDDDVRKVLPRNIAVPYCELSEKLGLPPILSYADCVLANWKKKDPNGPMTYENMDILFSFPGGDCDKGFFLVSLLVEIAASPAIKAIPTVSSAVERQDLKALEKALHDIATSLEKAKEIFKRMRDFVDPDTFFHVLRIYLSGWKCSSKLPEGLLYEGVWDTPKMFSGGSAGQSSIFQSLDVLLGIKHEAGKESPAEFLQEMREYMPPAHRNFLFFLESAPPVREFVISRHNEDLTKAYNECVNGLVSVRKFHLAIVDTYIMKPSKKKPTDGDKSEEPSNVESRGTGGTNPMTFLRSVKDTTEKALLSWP", "test": "Inhibition of mouse IDO1 expressed in mouse P1.HTR cells assessed as inhibition of Kyn production incubated for 16 hrs by HPLC analysis", "assay_type": "cell-based"}, "[7]": {"target": "T1, Indoleamine 2,3-dioxygenase 1", "test": "Inhibition of IDO1 in human SK-OV-3 cells assessed as effect on KYN level using L-tryptophan as substrate incubated for 18 hrs by 4-(dimethylamino)benzaldehyde based absorbance method", "assay_type": "cell-based"}, "[8]": {"test": "Inhibition of IDO1/TDO2 in human BT-549 cells assessed as suppression of kynurenine using L-tryptophan as substrate for 18 hrs by 4-(dimethylamino)benzaldehyde based absorbance method", "assay_type": "cell-based", "details": "BT-549, 18 h"}, "[9]": {"target": "T1, Indoleamine 2,3-dioxygenase 1", "test": "Inhibition of recombinant human IDO1 expressed in Escherichia coli BL21(DE3) assessed as effect on kynurenine level using L-tryptophan as substrate incubated for 1 hr by Ehrlich's reagent based assay"}, "[10]": {"target": "T1, Indoleamine 2,3-dioxygenase 1", "test": "Inhibition of human IDO1 incubated for 60 mins using L-tryptophan as substrate by absorbance method"}, "[11]": {"target": "T1, Indoleamine 2,3-dioxygenase 1", "test": "Inhibition of human N-terminal His-tagged IDO1 expressed in Escherichia coli M15 incubated for 1 hr by UV-Vis spectrophotometric method"}, "[12]": {"target": "T1, Indoleamine 2,3-dioxygenase 1", "test": "Inhibition of human IDO1 in IFN-stimulated human MDA-MB-231 cells preincubated for 48 hrs followed by L-tryptophan addition and measured after 5 hrs by UV-Vis spectrophotometric method", "assay_type": "cell-based"}, "[13]": {"target": "T1, Indoleamine 2,3-dioxygenase 1", "test": "Inhibition of IDO1 in IFN-gamma stimulated human HeLa cells assessed as effect on kynurenine level incubated for 48 hrs by p-dimethylaminobenzaldehyde based assay"}, "[14]": {"target": "T1, Indoleamine 2,3-dioxygenase 1", "test": "Inhibition of IDO1 (unknown origin) by cell-based assay"}, "[15]": {"target": "T1, Indoleamine 2,3-dioxygenase 1", "test": "Inhibition of human IDO1 using D-Trp as substrate by absorbance method"}, "[16]": {"target": "T1, Indoleamine 2,3-dioxygenase 1", "test": "Inhibition of IDO1 in human HeLa cells", "assay_type": "cell-based"}, "[17]": {"test_system": "HEK-293T", "test": "Cytotoxicity against HEK293T cells", "assay_type": "cell-based", "details": "Homo sapiens"}, "[18]": {"target": "T1, Indoleamine 2,3-dioxygenase 1", "test": "Inhibition of IDO1 in IFN-gamma stimulated human HeLa cells centrifuged for 10 mins"}, "[19]": {"target": "T1, Indoleamine 2,3-dioxygenase 1", "test": "Inhibition of IDO1 in IFN-gamma stimulated human HeLa cells assessed as effect on KYN level incubated for 48 hrs by rapidfire-mass spectrometry"}, "[20]": {"target": "T1, Indoleamine 2,3-dioxygenase 1", "test": "Inhibition of human 6His/FLAG-tagged/Avi/TEV-fused IDO1 expressed in Escherichia coli by absorbance method"}, "[21]": {"target": "T1, Indoleamine 2,3-dioxygenase 1", "test": "Inhibition of IDO1 (unknown origin)"}, "[22]": {"target": "T1, Indoleamine 2,3-dioxygenase 1", "test": "Inhibition of recombinant human IDO1 expressed in Escherichia coli BL21(DE3) incubated for 15 mins by Dixon plot analysis"}, "[23]": {"target": "Tryptophan 2,3-dioxygenase (Homo sapiens, UniProt P48775)", "sequence (P48775 whole entry)": "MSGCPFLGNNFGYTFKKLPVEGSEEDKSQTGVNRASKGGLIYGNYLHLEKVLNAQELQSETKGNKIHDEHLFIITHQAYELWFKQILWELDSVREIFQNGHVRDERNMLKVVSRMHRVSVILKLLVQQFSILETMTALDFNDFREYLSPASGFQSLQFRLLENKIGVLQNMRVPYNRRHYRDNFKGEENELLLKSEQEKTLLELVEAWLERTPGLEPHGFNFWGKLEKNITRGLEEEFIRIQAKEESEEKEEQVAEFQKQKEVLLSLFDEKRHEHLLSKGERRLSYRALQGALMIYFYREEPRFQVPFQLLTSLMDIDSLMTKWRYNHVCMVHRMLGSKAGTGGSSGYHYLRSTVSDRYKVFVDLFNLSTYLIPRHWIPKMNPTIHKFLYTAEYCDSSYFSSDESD", "test": "Inhibition of recombinant human TDO expressed in Escherichia coli Rosetta (DE3) pLysS incubated for 20 mins by Dixon plot analysis"}, "[24]": {"target": "T1, Indoleamine 2,3-dioxygenase 1", "test": "Binding affinity to recombinant human IDO1 expressed in Escherichia coli BL21 incubated for 4 hrs by UV-Visible Spectroscopy"}}, "note": "pEC50, pIC50, pKd, pKi: −log10 of the molar value."}
{"smiles": "O=C(CSc1nnc2scc(-c3ccccc3)n12)Nc1ccc2c(c1)OCO2", "values": [{"measurement": "pIC50", "setting": "[1]", "result": 5.52}]}
{"smiles": "O=C1c2nnn(Cc3ccccc3)c2C(=O)c2nnn(Cc3ccccc3)c21", "values": [{"measurement": "pIC50", "setting": "[2]", "result": 9.00}]}
{"smiles": "Nc1nonc1/C(=N/O)N1Cc2ccccc2C1", "values": [{"measurement": "pIC50", "setting": "[3]", "result": 5.80}]}
{"smiles": "O=C1CCC(N2C(=O)c3cccc(NCCOCCOCCOCCOCCOCCOCCOCCNCCNc4nonc4/C(=N/O)Nc4ccc(F)c(Br)c4)c3C2=O)C(=O)N1", "note": "(stereo not drawn)", "values": [{"measurement": "CC50 at 48 h", "setting": "[4]", "result": 37400, "unit": "nM"}, {"measurement": "DC50", "setting": "[5]", "result": 2840, "unit": "nM"}]}
{"smiles": "Cc1c(C)n(CC(O)CNc2ccccc2)c2ccccc12", "note": "(stereo not drawn)", "values": [{"measurement": "pIC50", "setting": "[6]", "result": 4.94}]}
{"smiles": "CC1=C(CC(=O)c2sccc2C)C(=O)c2ccccc2C1=O", "values": [{"measurement": "pIC50", "setting": "[7]", "result": "< 4.40"}, {"measurement": "pIC50", "setting": "[8]", "result": 5.47}]}
{"smiles": "N#Cc1ccc(C(F)(F)F)c(SCC(=O)Nc2ccc(F)c(Cl)c2)n1", "values": [{"measurement": "pIC50", "setting": "[9]", "result": 6.08}]}
{"smiles": "O=C(O)C[C@H]1CNC(=S)c2cc(Br)c(Br)n21", "values": [{"measurement": "pIC50", "setting": "[10]", "result": 4.04}]}
{"smiles": "NC(=O)c1n[nH]nc1-c1ccc(F)c(F)c1", "values": [{"measurement": "pIC50", "setting": "[11]", "result": 6.96}, {"measurement": "pEC50", "setting": "[12]", "result": 7.13}]}
{"smiles": "C=C1OC2=C(C(=O)c3ccccc3C2=O)C1(C)C", "values": [{"measurement": "pIC50", "setting": "[13]", "result": 6.00}]}
{"smiles": "C[C@@H](NC(=O)c1ccc(F)cc1)c1ccc2c(c1)CCN2C(=O)C1CCOCC1", "note": "[LY-3381916]", "values": [{"measurement": "pIC50", "setting": "[14]", "result": 8.15}]}
{"smiles": "O=C(Cc1cccc(N(CCCl)CCCl)c1)NCCNc1nonc1/C(=N/O)Nc1ccc(F)c(Br)c1", "values": [{"measurement": "pIC50", "setting": "[15]", "result": 6.89}, {"measurement": "pEC50", "setting": "[13]", "result": 6.57}]}
{"smiles": "COC1=C(OC)C(=O)C(Nc2cccc(Br)c2)=CC1=O", "values": [{"measurement": "pIC50", "setting": "[2]", "result": 6.89}, {"measurement": "pIC50", "setting": "[16]", "result": 4.95}, {"measurement": "pIC50", "setting": "[17]", "result": 4.55}]}
{"smiles": "CC(C)CN(c1ccc(-c2c(C(=O)O)ccc3ccccc23)cc1NC(=O)Nc1ccc(Br)cc1F)C1CCCCC1", "values": [{"measurement": "pIC50", "setting": "[18]", "result": 8.59}]}
{"smiles": "CC(C)CN(CC(C)C)c1ccc([C@H](C)CC(=O)O)cc1NCNc1nc(C(F)(F)F)ns1", "values": [{"measurement": "pIC50", "setting": "[19]", "result": 8.23}, {"measurement": "pIC50", "setting": "[20]", "result": 7.41}]}
{"smiles": "NS(=O)(=O)NCCNC(=O)c1n[nH]nc1-c1ccc(F)cc1", "values": [{"measurement": "pIC50", "setting": "[11]", "result": 7.04}, {"measurement": "pEC50", "setting": "[12]", "result": 7.13}]}
{"smiles": "c1ccc2c(c1)[nH]c1cnccc12", "note": "[NORHARMANE]", "values": [{"measurement": "pKi", "setting": "[21]", "result": 3.74}]}
{"smiles": "O=C(c1ccccc1)C(c1ccccc1)C1(O)C(=O)Nc2c(Cl)cc(Cl)cc21", "note": "(stereo not drawn)", "values": [{"measurement": "pKi", "setting": "[22]", "result": 6.00}, {"measurement": "pKi", "setting": "[23]", "result": 5.40}]}
{"smiles": "Clc1ccc(Nc2cn[nH]n2)cc1", "values": [{"measurement": "pKd", "setting": "[24]", "result": 5.64}]}
